Values of other authors as cited in patent US7807404B2, “Mutated truncated mt-pfkA gene for the synthesis of active shorter fragment of 6-phosphofructo-1-kinase” (Kemijski Institut, priority 2006, dated 2010).

Legend:
[1] = system: PFK1 with 8 amino acid residues cleaved from the C-terminal part
PFK1 [2] = biological target: T1, PFK1 (Aspergillus niger, UniProt P78985); details: citrate 10 mM
T1 construct: The PFK1 isolated from Aspergillus niger cells; host or cells: Aspergillus niger cells

PFK1 [3] = biological target: T2, PFK1 (Oryctolagus cuniculus, UniProt P00511)
T2 construct: the enzyme, isolated from the rabbit muscle; host or cells: rabbit muscle
T2 sequence (P00511 2-780 limits assumed): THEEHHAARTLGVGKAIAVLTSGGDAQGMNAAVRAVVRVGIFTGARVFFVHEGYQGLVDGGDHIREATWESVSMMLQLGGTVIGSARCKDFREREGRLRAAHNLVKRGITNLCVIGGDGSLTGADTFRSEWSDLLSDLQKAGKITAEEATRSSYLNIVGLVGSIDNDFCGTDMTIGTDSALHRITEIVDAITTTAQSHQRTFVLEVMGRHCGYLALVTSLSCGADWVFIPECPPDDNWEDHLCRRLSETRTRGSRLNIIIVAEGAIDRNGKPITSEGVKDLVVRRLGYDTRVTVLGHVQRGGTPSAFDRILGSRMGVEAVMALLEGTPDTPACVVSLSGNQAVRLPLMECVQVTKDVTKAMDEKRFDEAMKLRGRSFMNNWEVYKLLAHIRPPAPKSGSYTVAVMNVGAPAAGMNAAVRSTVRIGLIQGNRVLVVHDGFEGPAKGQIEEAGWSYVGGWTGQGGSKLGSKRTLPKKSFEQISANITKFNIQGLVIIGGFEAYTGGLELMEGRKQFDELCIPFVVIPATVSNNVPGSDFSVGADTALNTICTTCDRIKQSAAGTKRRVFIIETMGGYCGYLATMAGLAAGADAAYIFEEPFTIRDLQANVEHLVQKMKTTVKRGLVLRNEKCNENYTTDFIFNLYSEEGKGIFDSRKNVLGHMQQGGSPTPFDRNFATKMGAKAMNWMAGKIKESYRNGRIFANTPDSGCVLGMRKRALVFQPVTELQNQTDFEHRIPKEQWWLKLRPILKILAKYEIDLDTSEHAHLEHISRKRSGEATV

PFK1 [4] = details: citrate 10 mM

T1 sequence (P78985 whole entry): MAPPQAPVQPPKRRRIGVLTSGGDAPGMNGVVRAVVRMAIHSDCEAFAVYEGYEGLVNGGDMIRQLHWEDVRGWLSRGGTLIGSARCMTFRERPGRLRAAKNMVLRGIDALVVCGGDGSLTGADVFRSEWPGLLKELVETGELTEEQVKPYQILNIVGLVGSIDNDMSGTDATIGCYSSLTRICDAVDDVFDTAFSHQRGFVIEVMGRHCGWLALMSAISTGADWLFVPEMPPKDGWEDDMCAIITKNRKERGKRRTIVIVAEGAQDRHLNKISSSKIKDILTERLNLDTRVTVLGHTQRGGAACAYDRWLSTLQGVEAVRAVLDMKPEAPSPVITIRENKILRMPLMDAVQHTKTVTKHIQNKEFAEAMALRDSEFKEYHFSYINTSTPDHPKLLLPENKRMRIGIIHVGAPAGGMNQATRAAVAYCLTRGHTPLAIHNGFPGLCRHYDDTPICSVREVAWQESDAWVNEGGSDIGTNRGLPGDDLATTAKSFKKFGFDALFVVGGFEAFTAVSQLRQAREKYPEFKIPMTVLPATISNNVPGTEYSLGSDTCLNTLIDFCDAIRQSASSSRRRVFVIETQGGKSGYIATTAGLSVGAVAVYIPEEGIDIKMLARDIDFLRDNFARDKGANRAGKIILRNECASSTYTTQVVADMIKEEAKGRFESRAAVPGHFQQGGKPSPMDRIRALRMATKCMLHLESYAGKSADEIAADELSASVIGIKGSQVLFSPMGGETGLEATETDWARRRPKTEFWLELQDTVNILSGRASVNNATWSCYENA

O=C(O)CC(O)(CC(=O)O)C(=O)O [citrate]
citrate concentration at which the enzyme lost its activity [1]: 10 mM
effect on catalytic activity (PFK1 [2]): almost prevented its catalytic activity
citrate concentration at which the enzyme was completely inactivated (PFK1 [3]): 2.5 mM
maximal velocity retained (PFK1 [4]): 20%
